Results published in ChEMBL document CHEMBL1201861, “Genomics of Drug Sensitity in Cancer screening data, Wellcome Trust Sanger Institute”.

How the values were obtained:
Assay in all cases: cells
RCC10RGB = format: functional, cell-based, Homo sapiens; details: Homo sapiens, RCC10RGB;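 further: growth inhibition of human RCC10RGB cells, read out by a cell viability assay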
Description: SANGER: Inhibition of human RCC10RGB cell growth in a cell viability assay.

A-427 = format: functional, cell-based, Homo sapiens; details: Homo sapiens, A-427;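 further: growth inhibition of human A-427 cells, read out by a cell viability assay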
Description: SANGER: Inhibition of human A427 cell growth in a cell viability assay.

NB13 = format: functional, cell-based, Homo sapiens; details: Homo sapiens, NB13;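 further: cell viability readout measuring growth inhibition of human NB13 cells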
Description: SANGER: Inhibition of human NB13 cell growth in a cell viability assay.

U-251 = format: functional, cell-based, Homo sapiens; details: Homo sapiens, U-251;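 further: growth inhibition of human U-251 cells, read out through a cell viability assay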
Description: SANGER: Inhibition of human U251 cell growth in a cell viability assay.

no-11 = format: functional, cell-based, Homo sapiens; details: Homo sapiens;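 further: growth inhibition of human NO-11 cells, read out with a cell viability assay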
Description: SANGER: Inhibition of human no-11 cell growth in a cell viability assay.

NUGC-3 = format: functional, cell-based, Homo sapiens; details: Homo sapiens, NUGC-3;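 further: growth inhibition of human NUGC-3 cells, read out with a cell viability assay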
Description: SANGER: Inhibition of human NUGC-3 cell growth in a cell viability assay.

HCC1954 = format: functional, cell-based, Homo sapiens; details: Homo sapiens, HCC1954;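 further: growth inhibition of human HCC1954 cells, read out with a cell viability assay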
Description: SANGER: Inhibition of human HCC1954 cell growth in a cell viability assay.

SK-MEL-28 = format: functional, cell-based; details: Homo sapiens;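 further: growth inhibition of human SK-MEL-28 cells, read out with a cell viability assay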
Description: SANGER: Inhibition of human SK-MEL-28 cell growth in a cell viability assay.

HCC1419 = format: functional, cell-based, Homo sapiens; details: Homo sapiens, HCC1419;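 further: growth inhibition of human HCC1419 cells, read out as cell viability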
Description: SANGER: Inhibition of human HCC1419 cell growth in a cell viability assay.

NB6 = format: functional, cell-based, Homo sapiens; details: Homo sapiens, NB6;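 further: growth inhibition of NB6 cells, read out by a cell viability assay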
Description: SANGER: Inhibition of human NB6 cell growth in a cell viability assay.

COR-L105 = format: functional, cell-based, Homo sapiens; details: Homo sapiens, COR-L105;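 further: cell growth inhibition determined with a viability assay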
Description: SANGER: Inhibition of human COR-L105 cell growth in a cell viability assay.

CTB-1 = format: functional, cell-based; details: Homo sapiens
Description: SANGER: Inhibition of human CTB-1 cell growth in a cell viability assay.

U-266 = format: functional, cell-based; details: Homo sapiens
Description: SANGER: Inhibition of human U-266 cell growth in a cell viability assay.

UACC-62 = format: functional, cell-based, Homo sapiens; details: Homo sapiens, UACC-62;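 further: growth inhibition of human UACC-62 cells, read out by a cell viability assay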
Description: SANGER: Inhibition of human UACC-62 cell growth in a cell viability assay.

TE-9 = format: functional, cell-based, Homo sapiens; details: Homo sapiens, TE-9;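 further: cell growth inhibition, measured with a cell viability readout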
Description: SANGER: Inhibition of human TE-9 cell growth in a cell viability assay.

NCI-H1581 = format: functional, cell-based, Homo sapiens; details: Homo sapiens, NCI-H1581;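 further: cell growth inhibition read out by a viability assay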
Description: SANGER: Inhibition of human NCI-H1581 cell growth in a cell viability assay.

NCI-H1437 = format: functional, cell-based, Homo sapiens; details: Homo sapiens, NCI-H1437;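 further: growth inhibition of human NCI-H1437 cells, read out by a cell viability assay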
Description: SANGER: Inhibition of human NCI-H1437 cell growth in a cell viability assay.

UO-31 = format: functional, cell-based; details: Homo sapiens;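 further: cell viability assay measuring inhibition of cell growth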
Description: SANGER: Inhibition of human U031 cell growth in a cell viability assay.

NCI-H727 = format: functional, cell-based, Homo sapiens; details: Homo sapiens, NCI-H727;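 further: growth inhibition of human NCI-H727 cells, read out with a cell viability assay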
Description: SANGER: Inhibition of human NCI-H727 cell growth in a cell viability assay.

PANC-08-13 = format: functional, cell-based, Homo sapiens; details: Homo sapiens, PANC-08-13;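 further: cell growth inhibition, measured with a cell viability assay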
Description: SANGER: Inhibition of human PANC-08-13 cell growth in a cell viability assay.

Hs-578T = format: functional, cell-based, Homo sapiens; details: Homo sapiens, Hs-578T
Description: SANGER: Inhibition of human Hs-578-T cell growth in a cell viability assay.

RD = format: functional, cell-based, Homo sapiens; details: Homo sapiens, RD
Description: SANGER: Inhibition of human RD cell growth in a cell viability assay.

FaDu = format: functional, cell-based, Homo sapiens; details: Homo sapiens, FaDu;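 further: cell viability readout of growth inhibition in FaDu cells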
Description: SANGER: Inhibition of human FADU cell growth in a cell viability assay.

HuP-T4 = format: functional, cell-based, Homo sapiens; details: Homo sapiens, HuP-T4;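 further: cell viability assay measuring how much HuP-T4 cell growth is inhibited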
Description: SANGER: Inhibition of human HuP-T4 cell growth in a cell viability assay.

NB10 = format: functional, cell-based, Homo sapiens; details: Homo sapiens, NB10;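 further: growth inhibition of NB10 cells, read out by a cell viability assay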
Description: SANGER: Inhibition of human NB10 cell growth in a cell viability assay.

LU-134-A = format: functional, cell-based; details: Homo sapiens
Description: SANGER: Inhibition of human LU-134-A cell growth in a cell viability assay.

NOS-1 = format: functional, cell-based, Homo sapiens; details: Homo sapiens, NOS-1;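 further: growth inhibition of the human NOS-1 cell line, read out with a cell viability assay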
Description: SANGER: Inhibition of human NOS-1 cell growth in a cell viability assay.

SW 954 = format: functional, cell-based, Homo sapiens; details: Homo sapiens, SW 954;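 further: growth inhibition of SW954 human cancer cells, read out as cell viability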
Description: SANGER: Inhibition of human SW954 cell growth in a cell viability assay.

MCF7 = format: functional, cell-based, Homo sapiens; details: Homo sapiens, MCF7;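 further: growth inhibition of human MCF7 cells, read out with a cell viability assay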
Description: SANGER: Inhibition of human MCF7 cell growth in a cell viability assay.

CCRF-CEM = format: functional, cell-based; details: Homo sapiens;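 further: inhibition of CCRF-CEM cell growth, measured by a cell viability assay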
Description: SANGER: Inhibition of human CCRF-CEM cell growth in a cell viability assay.

BE-13 = format: functional, cell-based; details: Homo sapiens;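 further: growth inhibition of human BE-13 cells, measured with a cell viability assay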
Description: SANGER: Inhibition of human BE-13 cell growth in a cell viability assay.

PC-3 = format: functional, cell-based, Homo sapiens; details: Homo sapiens, PC-3;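 further: cell viability assay measuring growth inhibition of PC-3 cells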
Description: SANGER: Inhibition of human PC-3 cell growth in a cell viability assay.

EW-18 = format: functional, cell-based; details: Homo sapiens;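 further: growth inhibition of EW-18 cells, read out by a cell viability assay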
Description: SANGER: Inhibition of human EW-18 cell growth in a cell viability assay.

MS-1 = format: functional, cell-based; details: Homo sapiens
Description: SANGER: Inhibition of human MS-1 cell growth in a cell viability assay.

SW1710 = format: functional, cell-based, Homo sapiens; details: Homo sapiens, SW1710;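 further: growth inhibition of SW1710 cells, determined with a cell viability assay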
Description: SANGER: Inhibition of human SW1710 cell growth in a cell viability assay.

KMOE-2 = format: functional, cell-based; details: Homo sapiens;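 further: growth inhibition of human KMOE-2 cells, read out with a cell viability assay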
Description: SANGER: Inhibition of human KMOE-2 cell growth in a cell viability assay.

A204 = format: functional, cell-based, Homo sapiens; details: Homo sapiens, A204;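 further: growth inhibition of human A204 cells, read out with a cell viability assay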
Description: SANGER: Inhibition of human A204 cell growth in a cell viability assay.

CAL-120 = format: functional, cell-based, Homo sapiens; details: Homo sapiens, CAL-120;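 further: cell growth inhibition, read out as cell viability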
Description: SANGER: Inhibition of human CAL-120 cell growth in a cell viability assay.

RS4-11 = format: functional, cell-based; details: Homo sapiens;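 further: growth inhibition of RS4-11 cells, read out by a cell viability assay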
Description: SANGER: Inhibition of human RS4-11 cell growth in a cell viability assay.

NCI-H2347 = format: functional, cell-based, Homo sapiens; details: Homo sapiens, NCI-H2347;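 further: growth inhibition of the cell line, read out with a cell viability assay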
Description: SANGER: Inhibition of human NCI-H2347 cell growth in a cell viability assay.

CGTH-W-1 = format: functional, cell-based, Homo sapiens; details: Homo sapiens, CGTH-W-1;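 further: growth inhibition of human CGTH-W-1 cells measured by cell viability assay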
Description: SANGER: Inhibition of human CGTH-W-1 cell growth in a cell viability assay.

CW-2 = format: functional, cell-based, Homo sapiens; details: Homo sapiens, CW-2;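 further: growth inhibition of CW-2 cells, read out by a cell viability assay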
Description: SANGER: Inhibition of human CW-2 cell growth in a cell viability assay.

CAL-72 = format: functional, cell-based, Homo sapiens; details: Homo sapiens, CAL-72;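 further: cell viability assay measuring inhibition of proliferation in the CAL-72 cell line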
Description: SANGER: Inhibition of human CAL-72 cell growth in a cell viability assay.

ALL-PO = format: functional, cell-based; details: Homo sapiens;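 further: growth inhibition of ALL-PO cells, read out by a cell viability assay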
Description: SANGER: Inhibition of human ALL-PO cell growth in a cell viability assay.

NCI-H661 = format: functional, cell-based, Homo sapiens; details: Homo sapiens, NCI-H661;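 further: cell viability assay read-out, IC50 being the concentration that inhibits growth of the cells by half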
Description: SANGER: Inhibition of human NCI-H661 cell growth in a cell viability assay.

NCI-H1299 = format: functional, cell-based, Homo sapiens; details: Homo sapiens, NCI-H1299;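 further: growth inhibition of human NCI-H1299 cells, read out by a cell viability assay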
Description: SANGER: Inhibition of human NCI-H1299 cell growth in a cell viability assay.

ETK-1 = format: functional, cell-based, Homo sapiens; details: Homo sapiens, ETK-1;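 further: growth inhibition of human ETK-1 cells, read out with a cell viability assay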
Description: SANGER: Inhibition of human ETK-1 cell growth in a cell viability assay.

M14 = format: functional, cell-based, Homo sapiens; details: Homo sapiens, M14;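 further: growth inhibition of M14 cells, read out with a cell viability assay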
Description: SANGER: Inhibition of human M14 cell growth in a cell viability assay.

DMS-114 = format: functional, cell-based, Homo sapiens; details: Homo sapiens, DMS-114
SK-PN-DW = format: functional, cell-based; details: Homo sapiens;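 further: growth inhibition measured with a viability assay on these cells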
Description: SANGER: Inhibition of human SK-PN-DW cell growth in a cell viability assay.

HCC38 = format: functional, cell-based, Homo sapiens; details: Homo sapiens, HCC38;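 further: cell viability assay on the human HCC38 cell line, with IC50 marking the concentration that inhibits cell growth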
Description: SANGER: Inhibition of human HCC38 cell growth in a cell viability assay.

SBC-5 = format: functional, cell-based, Homo sapiens; details: Homo sapiens, SBC-5;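 further: cell viability assay read-out, IC50 is the concentration that inhibits growth of the cells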
Description: SANGER: Inhibition of human SBC-5 cell growth in a cell viability assay.

NB5 = format: functional, cell-based, Homo sapiens; details: Homo sapiens, NB5;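 further: growth inhibition of NB5 cells, read out as cell viability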
Description: SANGER: Inhibition of human NB5 cell growth in a cell viability assay.

Measured: IC50

C[C@]1(O)C[C@@H](c2nc(-c3ccc4ccc(-c5ccccc5)nc4c3)c3c(N)nccn32)C1 [LINSITINIB]
1910 nM: SK-PN-DW
338 nM: RS4-11
864 nM: PANC-08-13
2280 nM: LU-134-A
198 nM: NCI-H727
454 nM: NB10
270 nM: EW-18
523 nM: NOS-1
1260 nM: RD
> 2560 nM: all other assays above

CN(Cc1cnc2nc(N)nc(N)c2n1)c1ccc(C(=O)N[C@@H](CCC(=O)O)C(=O)O)cc1 [METHOTREXATE]
16.2 nM: CTB-1
45.3 nM: MS-1
69.4 nM: SBC-5
31.2 nM: CGTH-W-1
88.7 nM: LU-134-A
5.86 nM: ALL-PO
97.4 nM: KMOE-2
7.05 nM: RS4-11
38.7 nM: BE-13
> 200 nM: all other assays above

O=C(c1cc(Cc2n[nH]c(=O)c3ccccc23)ccc1F)N1CCN(C(=O)C2CC2)CC1 [OLAPARIB]
> 5000 nM: all assays above

C=CCc1cccc(/C=N/NC(=O)CN2CCN(Cc3ccccc3)CC2)c1O [PAC-1]
1440 nM: CTB-1
566 nM: CCRF-CEM
2000 nM: NCI-H727
2480 nM: ETK-1
2230 nM: NCI-H1437
1510 nM: UO-31
> 2560 nM: all other assays above
